Entries after “also recorded” stand apart in the source; their conditions may differ. Marks after values point to notes of the source that are not given here.
Legend:
[1] = test system: Kaposi sarcoma; test: Clinical study of pomalidomide in Kaposi sarcoma patients with and without HIV: KS responses by modified ACTG criteria; assay type: in vivo, human
Procedure: Enrollment: 22 patients (15 HIV positive and 7 HIV negative) median age 52 years (range 32-74) were studied. All patients with HIV were receiving antiretroviral therapy (ART) for median 48 months (7-227), HIV VL<50 copies/mL (all), and CD4 count 378 cells/μl (135-752). […] All were evaluable for response.
(§1) Aspirin at 81 mg daily was administered as thromboprophylaxis. Assessments were performed every 4 weeks for lymphocyte numbers, Kaposi sarcoma associated herpesvirus (KSHV/HHV8) viral load (VL) and HIV VL and at 8 weeks for T cell subsets and activation by immunophenotyping of peripheral blood mononuclear cells (PBMC). KSHV VL in PBMC and HIV VL in plasma were assayed by quantitative PCR; an ultrasensitive single copy assay was used for HIV VL. Changes from baseline were evaluated using the Wilcoxon signed rank test with P<0.005 considered significant given multiple comparisons. Differences in changes between the HIV infected and uninfected groups were evaluated using the Wilcoxon rank sum test. Median time of the patients on therapy 7 cycles (range 2-12).
Kaposi sarcoma responses: KS responses were evaluated every cycle and categorized as complete (CR), partial (PR), stable disease (SD), or progressive disease (PD) using modified ACTG criteria. To be evaluable for response, patients completed at least two cycles of therapy. Evaluations included lesion counts, measurement of the sum product of the diameters of five indicator lesions, assessment of nodularity, and measurement of limb circumference if tumor-associated edema was present. PR was considered as at least 50% decrease in number of lesions and/or sum product of the diameters of marker lesions and/or nodularity of lesions, and no new lesions in previously uninvolved areas nor criteria for PD. CR was considered as clinical resolution of all lesions and tumor-associated phenomenon, with biopsy confirmation. Both CR and PR had to be sustained for 4 weeks. Best response was evaluated for each patient.
Complete and partial responses are objective tumor responses by modified AIDS Clinical Trial Group Criteria for KS. Complete response also requires pathological confirmation. Individual responses are shown in FIG. 1A (maximal change in number of nodular lesions) and FIG. 1B (maximal change in total number of lesions). No decrease in quality of life during therapy was reported by patient. Improved satisfaction with appearance was reported by patients. […] This includes objective responses in patients previously refractory to standard cytotoxic therapy and in patients who have previously received other immunomodulatory drugs (e.g., thalidomide, lenalidomide, or both).
HIV infected and uninfected cohorts were evaluated separately and combined. The unacceptable ORR for further development was defined as 10% and a desirable (targeted) ORR as 40%. Up to 10 HIV negative patients were to be enrolled, with the goal of […]; that would have 83.3% probability of occurring if the true ORR were 40% and 7.0% probability of occurring if the true ORR were 10%. Up to 15 HIV positive patients were to be enrolled, with the goal of […]; that would have 90.9% probability of occurring if the true ORR were 40% and 5.6% probability of occurring if the true ORR were 10%.

[2] = test system: lymphocyte subsets; test: Immunologic correlatives: lymphocyte numbers and T cell subsets/activation by immunophenotyping of PBMC; assay type: in vivo, human; conditions: for CD4 and CD8 counts: week 4 and week 8 of therapy
Procedure: as §1
Laboratory Assays: Lymphocyte subsets were assessed by fluorescent-activated cell sorting using the BlueOcean platform (Beckman Coulter, Carlsbad, Calif.). Plasma HIV-1 […] was evaluated using an ultrasensitive assay whose sensitivity was 1 viral copy per plasma volume. Briefly, a triplex PCR was used using a modification of a previously reported assay with three primers: one spanning the start codon of gag, one in the gag coding region, and one internal control. Samples were tested from 6 mL plasma aliquots, with 12 replicants per sample. KSHV VL in peripheral blood mononuclear cells (PBMC) was assessed by quantitative real-time PCR.
Changes in immunologic and virologic parameters were evaluated by a Wilcoxon signed rank test. Exact Wilcoxon rank sum tests were used to compare pharmacokinetic parameters at each time point and differences from baseline. All p-values are two-tailed and reported without adjustment for multiple comparisons. HRQL was analyzed using a using a mixed model repeated measures analysis for FAHI and the marginal homogeneity test for KS-specific questions

[3] = Combined, 22 assessable, patients (%), 5 mg per day orally 21 of 28 days
[4] = HIV negative, 7 assessable, patients (%)
[5] = HIV positive, 15 assessable, patients (%)

Nc1cccc2c1C(=O)N(C1CCC(=O)NC1=O)C2=O (stereo not shown) [pomalidomide, 4-amino-2-(2,6-dioxopiperidin-3-yl)isoindoline-1,3-dione]
response in HIV-uninfected subjects ([1]; 5 mg for 21 of 28 days): all HIV-uninfected subjects responded
overall response rate ([1]; 5 mg for 21 of 28 days, symptomatic KS regardless of HIV status): 73%
subjects with edema having evidence of improvement in tumor-associated edema ([1]; 10 of 17 subjects with edema): 59%
Complete Response (CR) [1, 3]: 4 (18%)
Partial Response (PR) [1, 3]: 12 (55%)
Progressive Disease (PD) [1, 3]: 3 (14%)
Overall Response (CR + PR) ([1]; Combined, 22 assessable, patients (%), 5 mg per day orally 21 days of 28 day cycles): 16 (73%)
Time to Response ([1]; Combined, range (4-36)): 4 weeks
Progressive Disease (PD) ([1]; HIV negative, 7 assessable, patients): 0
Complete Response (CR) [1, 4]: 1 (14%)
Partial Response (PR) [1, 4]: 6 (86%)
Overall Response (CR + PR) ([1]; HIV negative, 7 assessable, patients (%), 5 mg per day orally 21 of 28 days): 7 (100%)
Time to Response ([1]; HIV negative, range (4-36)): 4 weeks
Complete Response (CR) [1, 5]: 3 (20%)
Partial Response (PR) [1, 5]: 6 (40%)
Overall Response (CR + PR) ([1]; HIV positive, 15 assessable, patients (%), 5 mg per day orally 21 of 28 days): 9 (60%)
Progressive Disease (PD) ([1]; HIV positive, 15 assessable, patients (%), includes one subject non-adherent to ART and protocol therapy): 3 (20%)*
Time to Response ([1]; HIV positive, range (4-32)): 8 weeks
KS responses, character ([1]; including patients refractory to cytotoxic therapy or previously given other immunomodulatory drugs): responses were generally rapid, were linked to improved self reported outcomes, and occurred even in advanced and heavily pretreated KS
subjects in whom limb circumference showed at least a 2 cm reduction with therapy ([1]; number of subjects, of 17 with edema): 8
representative response of a left great toe lesion ([1]; one patient, after 4 weeks, FIG. 10B): complete flattening of the lesion
representative response of a left great toe lesion ([1]; same patient, 24 weeks, FIG. 10C): complete resolution of the lesion and a complete pathological response
CD19 B-cells ([2]; during therapy): decline; also recorded: reversible decrease
NK cells ([2]; during therapy): no significant change
Ki67 or PD-1 expression in CD4 or CD8 cells ([2]; in vivo): no significant changes
difference between HIV infected and uninfected patient groups in observed effects (cell number and phenotype) ([2]; in vivo): no significant difference
CD3 (cells/μL) Change to End Therapy (Med, range) ([2]; median change from baseline): +11 cells/μL
CD3 (cells/μL) Change to Week 8 (Med, range) ([2]; median change from baseline): +190 cells/μL
CD4 (cells/μL) Change to End Therapy (Med, range) ([2]; median change from baseline): −46 cells/μL
CD4 (cells/μL) Change to Week 8 (Med, range) ([2]; median change from baseline): +40 cells/μL
CD8 (cells/μL) Change to End Therapy (Med, range) ([2]; median change from baseline): 104 cells/μL
CD8 (cells/μL) Change to Week 8 (Med, range) ([2]; median change from baseline): +142 cells/μL
CD19 (cells/μL) Change to End Therapy (Med, range) ([2]; median change from baseline): −87 cells/μL
CD19 (cells/μL) Change to Week 8 (Med, range) ([2]; median change from baseline): −70 cells/μL
NK (cells/μL) Change to End Therapy (Med, range) ([2]; median change from baseline): 10 cells/μL
NK (cells/μL) Change to Week 8 (Med, range) ([2]; median change from baseline): −6 cells/μL
CD19 (cells/μL) Change to Week 4 (Med, range) ([2]; median change from baseline 141): −35 cells/μL
NK (cells/μL) Change to Week 4 (Med, range) ([2]; median change from baseline 178): +23 cells/μL
CD4 (cells/μL) Change to Week 4 (Med, range) ([2]; median change from baseline 440): +108 cells/μL
CD8 (cells/μL) Change to Week 4 (Med, range) ([2]; median change from baseline 500): +101 cells/μL
CD3 (cells/μL) Change to Week 4 (Med, range) ([2]; median change from baseline 1184): +275 cells/μL
CD4 Subsets 38+ DR+: Absolute Change in % at Week 8 (med, range) ([2]; median, baseline 2.5 %): +2%
CD4 Subsets RO− 27− (E): Absolute Change in % at Week 8 (med, range) ([2]; median, baseline 3.3 %): −1.5%
CD4 Subsets 57+: Absolute Change in % at Week 8 (med, range) ([2]; median, baseline 6.3 %): −1.34%
CD8 Subsets 38+ DR+: Absolute Change in % at Week 8 (med, range) ([2]; median, baseline 8.0 %): +8.5%
CD4 Subsets HLA DR+: Absolute Change in % at Week 8 (med, range) ([2]; median, baseline 8.9 %): +8.3%
CD4 Subsets RO+ 27− (EM): Absolute Change in % at Week 8 (med, range) ([2]; median, baseline 16.7 %): +1.7%
CD8 Subsets RO+ 27+ (CM): Absolute Change in % at Week 8 (med, range) ([2]; median, baseline 17.1 %): +8.1%
CD8 Subsets RO+ 27− (EM): Absolute Change in % at Week 8 (med, range) ([2]; median, baseline 18.4 %): +1.0%
CD8 Subsets HLA DR+: Absolute Change in % at Week 8 (med, range) ([2]; median, baseline 19.6 %): +11.6%
CD8 Subsets RO− 27+ (N): Absolute Change in % at Week 8 (med, range) ([2]; median, baseline 21.0 %): −5.1%
CD8 Subsets 57+: Absolute Change in % at Week 8 (med, range) ([2]; median, baseline 30.8 %): −11.0%
CD8 Subsets RO− 27− (E): Absolute Change in % at Week 8 (med, range) ([2]; median, baseline 31.8 %): −6.1%
CD4 Subsets RO− 27+ (N): Absolute Change in % at Week 8 (med, range) ([2]; median, baseline 32.6 %): −6.6%
CD8 Subsets 38+: Absolute Change in % at Week 8 (med, range) ([2]; median, baseline 33.4 %): +19.9%
CD4 Subsets 38+: Absolute Change in % at Week 8 (med, range) ([2]; median, baseline 34.5 %): +4.3%
CD4 Subsets RO+ 27+ (CM): Absolute Change in % at Week 8 (med, range) ([2]; median, baseline 41.9 %): +6.4%
CD4 and CD8 counts [2]: Significant increases
CD4 and CD8 counts ([2]; listed as Pomalidomide): significant increases
activation (CD38+, HLADR+ and DR+/38+) of CD4 and CD8 T-cells ([2]; week 8): significant increases
senescence (CD57+) of CD4 and CD8 T-cells ([2]; week 8): decreases

— US10001483B2, “Methods for the treatment of Kaposi's sarcoma or KSHV-induced lymphoma using immunomodulatory compounds, and uses of biomarkers” (Celgene Corporation, priority 2015, dated 2018)
